Active and inactive are the calls of the source. No cut-off for these calls is given here.
Tests used:
[1] = test system: Pseudomonas aeruginosa; test: Antibacterial activity against Pseudomonas aeruginosa CGMCC 1.2342 assessed as growth inhibition at 100 ug/ml after 24 hrs; assay type: functional; conditions: for inhibition of growth at 100 µg/mL: CGMCC 1.2342, 24 h, read-out: GI
[2] = Metal chelating activity assessed as formation of [Fe3L+H+2Na]3+-compound complex at 1:3 compound to ferric ion molar ratio by HR-ESI MS analysis
[3] = test system: Bacillus subtilis; test: Antibacterial activity against Bacillus subtilis CGMCC 1.0108 assessed as growth inhibition at 100 ug/ml after 24 hrs; assay type: functional; conditions: for inhibition of growth at 100 µg/mL: CGMCC 1.0108, 24 h, read-out: GI
[4] = Binding affinity to Fe3+ at 1:1 compound to ferric ion molar ratio by HR-ESI MS analysis
[5] = test system: Staphylococcus aureus; test: Antibacterial activity against Staphylococcus aureus CGMCC 1.0089 assessed as growth inhibition at 100 ug/ml after 24 hrs; assay type: functional; conditions: for inhibition of growth at 100 µg/mL: CGMCC 1.0089, 24 h, read-out: GI
[6] = Metal chelating activity assessed as formation of [Fe3L+H+Na]2+-compound complex at 1:3 compound to ferric ion molar ratio by HR-ESI MS analysis
[7] = Binding affinity to Fe3+ at 1:2 compound to ferric ion molar ratio by HR-ESI MS analysis
[8] = Iron chelating activity assessed as pFe3+ by measuring fluorescence intensity of the iron-CP691 complex at 2 uM after 1 month incubation in absence of light using CP691 as fluorescent probe by fluorescence assay relative to CP691 alone
[9] = test system: Escherichia coli; test: Antibacterial activity against Escherichia coli CGMCC 1.0907 assessed as growth inhibition at 100 ug/ml after 24 hrs; assay type: functional; conditions: for inhibition of growth at 100 µg/mL: CGMCC 1.0907, 24 h, read-out: GI
[10] = Binding affinity to Fe3+ at 1:3 compound to ferric ion molar ratio measured after 4 hrs at pH 8.2 to 8.4 measured at 460 nm by UV/Vis spectrophotometry
[11] = Binding affinity to Fe3+ at 1:9 compound to ferric ion molar ratio by HR-ESI MS analysis
[12] = Iron chelating activity assessed as pFe3+ by measuring fluorescence intensity of the iron-CP691 complex at 0.67 uM after 1 month incubation in absence of light using CP691 as fluorescent probe by fluorescence assay relative to CP691 alone
[13] = Binding affinity to Fe3+ at 1:9 compound to ferric ion molar ratio measured after 4 hrs at pH 8.2 to 8.4 measured at 460 nm by UV/Vis spectrophotometry
[14] = Binding affinity to Fe3+ at 1:6 compound to ferric ion molar ratio measured after 4 hrs at pH 8.2 to 8.4 measured at 460 nm by UV/Vis spectrophotometry
[15] = Binding affinity to Fe3+ at 1:6 compound to ferric ion molar ratio by HR-ESI MS analysis
[16] = Iron chelating activity assessed as pFe3+ by measuring fluorescence intensity of the iron-CP691 complex at 1 uM after 1 month incubation in absence of light using CP691 as fluorescent probe by fluorescence assay relative to CP691 alone

Structure (SMILES)	growth inhibition (GI) [1]	Activity [2]	growth inhibition (GI) [3]	Activity [4]	growth inhibition (GI) [5]	Activity [6]	Activity [7]	log(activity) [8]	growth inhibition (GI) [9]	inhibition of growth at 100 µg/mL [1]	inhibition of growth at 100 µg/mL [3]	Activity [10]	inhibition of growth at 100 µg/mL [5]	inhibition of growth at 100 µg/mL [9]	Activity [11]	log(activity) [12]	Activity [13]	Activity [14]	Activity [15]	log(activity) [16]
O=C(CCC(CCC(=O)NCc1c(O)c(=O)ccn1CCO)(CCC(=O)NCc1c(O)c(=O)ccn1CCO)NC(=O)CCNC(=O)CN(CC(=O)NCCC(=O)NC(CCC(=O)NCc1c(O)c(=O)ccn1CCO)(CCC(=O)NCc1c(O)c(=O)ccn1CCO)CCC(=O)NCc1c(O)c(=O)ccn1CCO)CC(=O)NCCC(=O)NC(CCC(=O)NCc1c(O)c(=O)ccn1CCO)(CCC(=O)NCc1c(O)c(=O)ccn1CCO)CCC(=O)NCc1c(O)c(=O)ccn1CCO)NCc1c(O)c(=O)ccn1CCO	85.3%	Active	95%	inactive	81.7%	Active	inactive	30	99.7%	–	–	–	–	–	–	–	–	–	–	–
CCCCn1ccc(=O)c(O)c1CNC(=O)CCC(CCC(=O)NCc1c(O)c(=O)ccn1CCCC)(CCC(=O)NCc1c(O)c(=O)ccn1CCCC)NC(=O)CCNC(=O)CN(CC(=O)NCCC(=O)NC(CCC(=O)NCc1c(O)c(=O)ccn1CCCC)(CCC(=O)NCc1c(O)c(=O)ccn1CCCC)CCC(=O)NCc1c(O)c(=O)ccn1CCCC)CC(=O)NCCC(=O)NC(CCC(=O)NCc1c(O)c(=O)ccn1CCCC)(CCC(=O)NCc1c(O)c(=O)ccn1CCCC)CCC(=O)NCc1c(O)c(=O)ccn1CCCC	–	Active	–	inactive	–	Active	inactive	30.3	–	90.4%	84.8%	Active	90%	71.7%	–	–	–	–	–	–
CCCCn1ccc(=O)c(CNC(=O)CCC(CCC(=O)NCc2c(O)c(=O)ccn2CCCC)(CCC(=O)NCc2c(O)c(=O)ccn2CCCC)NC(=O)CCNC(=O)CCC(CCC(=O)NCCC(=O)NC(CCC(=O)NCc2c(O)n(CCCC)ccc2=O)(CCC(=O)NCc2c(O)c(=O)ccn2CCCC)CCC(=O)NCc2c(O)c(=O)ccn2CCCC)(CCC(=O)NCCC(=O)NC(CCC(=O)NCc2c(O)n(CCCC)ccc2=O)(CCC(=O)NCc2c(O)c(=O)ccn2CCCC)CCC(=O)NCc2c(O)c(=O)ccn2CCCC)NC(=O)CCNC(=O)CCNC(=O)c2cc(C(=O)NCCC(=O)NCCC(=O)NC(CCC(=O)NCCC(=O)NC(CCC(=O)NCc3c(O)n(CCCC)ccc3=O)(CCC(=O)NCc3c(O)c(=O)ccn3CCCC)CCC(=O)NCc3c(O)c(=O)ccn3CCCC)(CCC(=O)NCCC(=O)NC(CCC(=O)NCc3c(O)n(CCCC)ccc3=O)(CCC(=O)NCc3c(O)c(=O)ccn3CCCC)CCC(=O)NCc3c(O)c(=O)ccn3CCCC)CCC(=O)NCCC(=O)NC(CCC(=O)NCc3c(O)n(CCCC)ccc3=O)(CCC(=O)NCc3c(O)c(=O)ccn3CCCC)CCC(=O)NCc3c(O)c(=O)ccn3CCCC)cc(C(=O)NCCC(=O)NCCC(=O)NC(CCC(=O)NCCC(=O)NC(CCC(=O)NCc3c(O)n(CCCC)ccc3=O)(CCC(=O)NCc3c(O)c(=O)ccn3CCCC)CCC(=O)NCc3c(O)c(=O)ccn3CCCC)(CCC(=O)NCCC(=O)NC(CCC(=O)NCc3c(O)n(CCCC)ccc3=O)(CCC(=O)NCc3c(O)c(=O)ccn3CCCC)CCC(=O)NCc3c(O)c(=O)ccn3CCCC)CCC(=O)NCCC(=O)NC(CCC(=O)NCc3c(O)n(CCCC)ccc3=O)(CCC(=O)NCc3c(O)c(=O)ccn3CCCC)CCC(=O)NCc3c(O)c(=O)ccn3CCCC)c2)c1O	69.9%	–	64.1%	–	64.5%	–	–	–	81.2%	–	–	–	–	–	inactive	29.8	Active	–	–	–
Cc1c(O)c(=O)ccn1C [DEFERIPRONE]	–	–	–	–	–	–	–	–	–	79.5%	77.4%	–	74.8%	89.1%	–	–	–	–	–	–
CCCCn1ccc(=O)c(CNC(=O)CCC(CCC(=O)NCc2c(O)c(=O)ccn2CCCC)(CCC(=O)NCc2c(O)c(=O)ccn2CCCC)NC(=O)CCNC(=O)CCC(CCC(=O)NCCC(=O)NC(CCC(=O)NCc2c(O)n(CCCC)ccc2=O)(CCC(=O)NCc2c(O)c(=O)ccn2CCCC)CCC(=O)NCc2c(O)c(=O)ccn2CCCC)(CCC(=O)NCCC(=O)NC(CCC(=O)NCc2c(O)n(CCCC)ccc2=O)(CCC(=O)NCc2c(O)c(=O)ccn2CCCC)CCC(=O)NCc2c(O)c(=O)ccn2CCCC)NC(=O)CCNC(=O)CCNC(=O)c2ccc(C(=O)NCCC(=O)NCCC(=O)NC(CCC(=O)NCCC(=O)NC(CCC(=O)NCc3c(O)n(CCCC)ccc3=O)(CCC(=O)NCc3c(O)c(=O)ccn3CCCC)CCC(=O)NCc3c(O)c(=O)ccn3CCCC)(CCC(=O)NCCC(=O)NC(CCC(=O)NCc3c(O)n(CCCC)ccc3=O)(CCC(=O)NCc3c(O)c(=O)ccn3CCCC)CCC(=O)NCc3c(O)c(=O)ccn3CCCC)CCC(=O)NCCC(=O)NC(CCC(=O)NCc3c(O)n(CCCC)ccc3=O)(CCC(=O)NCc3c(O)c(=O)ccn3CCCC)CCC(=O)NCc3c(O)c(=O)ccn3CCCC)cc2)c1O	–	–	–	–	–	–	–	–	–	87.9%	81.4%	–	86.9%	79.8%	–	–	–	Active	inactive	30.3

Source: ChEMBL document CHEMBL4118261, “Synthesis, iron binding and antimicrobial properties of hexadentate 3-hydroxypyridinones-terminated dendrimers” (2018)
